Data set [1] in a line: Primary HCV replicon cell assay, cytotoxicity (neutral red dye uptake). The class given is cell-based. Conditions: human, 3 days of treatment. Background: A replicon is a self-replicating genome or part of one, used to study replication in cells.
Method: (§4) Antiviral activity of test compounds was assessed in a 3-day assay using the stably-expressing HCV replicon cell line, AVA5 (sub-genomic CONI, genotype 1b) [Korba, B. E. et al. Antiviral Res. 77, 56-63 (2008); Blight et al., Science 290, 1972-1974 (2000)] maintained as sub-confluent cultures on 96-well plates as previously described [Okuse et al., Antiviral Research 65, 23-34 (2005)]. Antiviral activity was determined by blot hybridization analysis of intracellular HCV RNA (normalized to the level of cellular B-actin RNA in each culture sample) and cytotoxicity was assessed by neutral red dye uptake after 3 days of treatment. Additional studies were performed using Huh7 cells containing another HCV replicon, H/FL-Neo, a genotype la full length construct [Blight et al., J. Virol. […] For studies involving human serum, standard culture medium (which contains 10% fetal bovine serum) and assay conditions were maintained.
The test system of data set [2] is Huh7 cells containing H/FL-Neo replicon. As to the kind of experiment: Secondary HCV replicon cell assay genotype 1a, cytotoxicity (neutral red dye uptake). Type of data set: cell-based.
Method: as §4
For data set [3], the system named is HCV replicon cell line, AVA5 (sub-genomic CONI, genotype 1b). Briefly: Secondary HCV replicon cell assay genotype 1b, antiviral activity. Type of data set: cell-based. Conditions: Hepatitis C virus; for EC50: 2-fold depression of intracellular HCV RNA; for EC90: 10-fold depression of intracellular HCV RNA. On the procedure: (§1) Antiviral activity of test compounds was assessed in a 3-day assay using the stably-expressing HCV replicon cell line, AVA5 (sub-genomic CONI, genotype 1b) [Korba, B. E. et al. Antiviral Res. 77, 56-63 (2008); Blight et al., Science 290, 1972-1974 (2000)] maintained as sub-confluent cultures on 96-well plates as previously described [Okuse et al., Antiviral Research 65, 23-34 (2005)]. Antiviral activity was determined by blot hybridization analysis of intracellular HCV RNA (normalized to the level of cellular B-actin RNA in each culture sample) and cytotoxicity was assessed by neutral red dye uptake after 3 days of treatment. Additional studies were performed using Huh7 cells containing another HCV replicon, H/FL-Neo, a genotype la full length construct [Blight et al., J. Virol. 77, 3181-3190 (2003)]. For studies involving human serum, standard culture medium (which contains 10% fetal bovine serum) and assay conditions were maintained.
(§2) EC50, EC90 and CC50 values (±standard deviations [S.D.]) were calculated by linear regression analysis using data combined from all treated cultures (Korba, B. E. et al. Antiviral Res. 77, 56-63 (2008)). […] Selectivity index (S.I.) was calculated as CC50/EC90 for HBV assays and CC50/EC50 for HCV assays.

For data set [4] the following is noted: cited from earlier work.
Data set [5] deals with HCV replicon H/FL-Neo, genotype 1a full length construct, in Huh7 cells. As to the kind of experiment: Secondary HCV replicon cell assay genotype 1a, antiviral activity. Type of data set: cell-based. Conditions: Hepatitis C virus; for EC50: Huh-7, 2-fold depression of intracellular HCV RNA; for EC90: Huh-7, 10-fold depression of intracellular HCV RNA. Here is the method:
as §1, §2

Data set [6] relates to HBV virion in 2.2.15 cells. Briefly: HBV antiviral assay in 2.2.15 cells, virion (VIR) HBV DNA. The class given is cell-based. Conditions: Hepatitis B virus; for EC50: read-out: EC50 (VIR).
Method: (§5) HBV antiviral assays were conducted as previously described [Korba, B. E. et al. Antiviral Res. 77, 56-63 (2008);].
The next data set concerns Huh 7.5 cells. As to the kind of experiment: Cytotoxicity in Huh 7.5 cells (Calcein / ViaCount assay). Type of data set: cell-based. Here is the method:
(§3) Genotype 2a antiviral assays were conducted as previously described [Broering R. et al., Gut, 59, 1111-1119 (2010)]. […] Cell viability was determined using the Calcein assay kit (Biotium, Inc. Hayward, Calif., USA). The alternate method for measuring cell cytotoxicity was via the Guava Technologies ViaCount assay (Millipore) The ViaCount Assay provides rapid and reliable determinations of viability and total cell count. It distinguishes viable and non-viable cells based on differential permeabilities of two DNA-binding dyes in the Guava ViaCount® Reagent. The nuclear dye stains only nucleated cells, while the viability dye brightly stains dying cells. This combination of dyes enables the Guava ViaCount Assay to distinguish viable, apoptotic, and dead cells. Debris is excluded from results based on negative staining with the nuclear dye.

Data set [7] has as its system HBV replication intermediates in 2.2.15 cells. As to the kind of experiment: HBV antiviral assay in 2.2.15 cells, replication intermediates (RI) HBV DNA. The class given is cell-based. Conditions: Hepatitis B virus; for EC50: read-out: EC50 (RI).
Method: as §5
Data set [8] can be described thus: Cytotoxicity in 2.2.15 cells (neutral red dye uptake). The class given is cell-based. Conditions: human, nine daily doses. On the procedure: Briefly, confluent cultures of 2.2.15 cells were maintained on 96-well flat-bottomed tissue culture plates (confluence in this culture system is required for active, high levels of HBV replication equivalent to that observed in chronically-infected individuals. Cultures were treated with nine consecutive daily doses of the test compounds. HBV DNA levels were assessed by quantitative blot hybridization 24 hr. after the last treatment. Cytotoxicity was assessed by uptake of neutral red dye 24 hr. following the last treatment.

Data set [9] concerns AVA5 HCV replicon cell line. As to the kind of experiment: Secondary HCV replicon cell assay genotype 1b, cytotoxicity (neutral red dye uptake). Type of data set: cell-based.
Method: as §4
The subject of data set [10] is J6/JFH-1 HCV (genotype 2a) in Huh 7.5 cells. As to the kind of experiment: Infectious genotype 2a HCV cell culture assay (RT-PCR viral load). The class given is cell-based, hepatitis C virus (HCV). Conditions: genotype G2a; for inhibition of J6/JFH-1 HCV replication: 1 μM test concentration; for relative activity / potency versus NTZ: at 1 μM, % of NTZ. Here is the method:
as §3
HCV replication levels were determined by RT-PCR on RNA from cell culture supernatants. J6-infected Huh 7.5 cells were seeded in 12-well plates at a density of 2.0E5 cells/well in 1.5 mL of DMEM supplemented with 10% FBS and 1% Pen/Strep. […] A positive control of IFN-α at concentrations of 10 IU/mL and 50 IU/mL, negative control wells containing mock incubations of DMEM with 1 uL and 10 uL (the same volume of the molecular compounds at 1 uM and 10 uM, respectively) of DMSO was included to rule out nonspecific effects of DMSO on the cells, and J6-infected with only DMEM were used as negative controls. A final control group consisted of un-infected Huh 7.5 cells, plated at the same time and density as the J6-infected cells on a separate plate. 48 hours and 120 hours after incubation with thiazolides, the media was collected and frozen, cells were washed 2× with PBS, and lysed in 500 uL of lysis buffer per well. Following lysis, RNA was extracted from the cells using the RNAqueous-4PCR Kit from Ambion, and the RNA concentration determined using the Nanoprop® machine. Reverse-transcription reactions produced 1.5 μg of cDNA per sample, which was then used for rt-PCR to quantify the HCV viral load in each sample. Analysis of the rt-PCR results generated the fold increases and decreases of the HCV viral load in comparison to untreated J6 cells.

Data set [11] concerns HCV replicon cell line, AVA5 (sub-genomic CONI, genotype 1b). Briefly: Primary HCV replicon cell assay, antiviral activity (intracellular HCV RNA, blot hybridization). The class given is cell-based. Conditions: Hepatitis C virus, Ava5, 72 h, 3-day assay; for EC50: 2-fold depression of intracellular HCV RNA; for EC90: 10-fold depression of intracellular HCV RNA. Here is the method: as §1, §2

Data set [12] in a line: Secondary HCV replicon cell assay genotype 1a, cytotoxicity (neutral red dye uptake). The class given is cell-based. Conditions: human.
Method: as §4
The nature of data set [13]: Secondary HCV replicon cell assay genotype 1b, cytotoxicity (neutral red dye uptake). The class given is cell-based. Conditions: human.
Method: as §4
The next data set concerns cytochrome P450 enzymes. Conditions: cited from earlier work.
Data set [14] has as its system AVA5 HCV replicon cell line. Briefly: Primary HCV replicon cell assay, cytotoxicity (neutral red dye uptake). Type of data set: cell-based. Conditions: 3 days of treatment.
Method: as §4
[15] abbreviates: AVA5 HCV replicon cells (sub-genomic CON1, genotype 1b).
[16] abbreviates: AVA5 HCV replicon cells (sub-genomic CON1).

Several values for one entry are separate records, joined by “and”; a condition that tells them apart may be missing. Equal entries are not always repeated. Entries after “also recorded” stand apart in the source; their conditions may differ. Where two headings read alike, the source gives them in different places.

The CC50 is the concentration that lowers cell viability or growth by half. Read a high CC50 as lower toxicity to the cells. As a reminder, the EC50 is the concentration that produces a half-maximal response. What is called EC90 is the point of the concentration-response curve where the effect stands at 90%.

The compound `CC(=O)Oc1ccccc1C(=O)Nc1ncc([N+](=O)[O-])s1` [NTZ, nitazoxanide, reference compound] displayed a CC50 at 3 days in [1] of 31000 nM. Also, the values for the cytotoxic concentration (CC50) in [2] and in data set [9] were 49000 nM and 35000 nM, respectively. The EC50 was determined as 250 nM in [3]; 330 nM in data set [5]; 120 nM in data set [6] (HBV virion DNA, 2.2.15 cells, nine daily doses); 590 nM in data set [7] (HBV replication intermediates, 2.2.15 cells, nine daily doses); 210 nM in [11]. Also, the EC90 in [3] is 950 nM; in [5], 1100 nM; in data set [11], 977 nM. In addition, the detection in plasma entry in data set [4] (after oral 500 mg NTZ tablet) was “not detected in plasma”. Further, the “cytotoxic effect in Huh 7.5 cells” value in the data set on Huh 7.5 cells was “without being cytotoxic; also recorded: None of these compounds showed a cytotoxic effect”. For the same compound, the CC50 at 9 days in data set [8] was > 100000 nM. Further, the “inhibition of J6/JFH-1 HCV replication” value in [10] was “demonstrated efficacy with regards to HCV replication; also recorded: shown to inhibit J6/JFH-1HCV replication”.
Turning to `COC(=O)c1ccc(NC(=O)c2ccccc2OC(C)=O)cc1` [Compound 44, methyl 4-(2-acetoxybenzamido)benzoate], the CC50 at 3 days in data set [1] (setting [15]) was 4400 nM; in data set [12], 7500 nM; in data set [13] (setting [16]), 6800 nM. Further, the concentration for a half-maximal effect (EC50) is 350 nM in data set [3], 300 nM in data set [5] and 58 nM in data set [11]. The EC90 stood at 4500 nM in data set [3], 5100 nM in data set [5] and 461 nM in data set [11]. The “cytotoxic effect in Huh 7.5 cells” value in the data set with Huh 7.5 cells is recorded as “None of these compounds showed a cytotoxic effect”. The “inhibition of J6/JFH-1 HCV replication” value in [10] is on record as “shown to inhibit J6/JFH-1HCV replication”. Besides, the “relative activity / potency versus NTZ” value in [10] came out at 53%.
With `O=C(Nc1ncc([N+](=O)[O-])s1)c1ccccc1O` [TIZ, tizoxanide, reference compound], the “inhibition of cytochrome P450 enzymes” value in the data set on cytochrome P450 enzymes is reported as “does not inhibit”. The compound further yielded a CC50 in [14] of 15000 nM. Besides, the values for the CC50 at 3 days in data set [12] and in data set [13] were 27000 nM and 28000 nM, respectively. Further, the EC50 in data set [3] amounted to 190 nM; in data set [5], 230 nM; in [6], 150 nM; in data set [7], 460 nM; in data set [11] it was 151 nM. Also, the EC90 amounted to 920 nM in data set [3]; 1000 nM in [5]; 580 nM in [6] (read-out: EC90 (VIR)); 1200 nM in data set [7] (read-out: EC90 (RI)); 813 nM in data set [11]. Further, the “fraction of oral dose excreted in feces as TIZ” value in [4] (oral dose of NTZ) is “Approximately two-thirds”. In [4] (oral, one 500 mg NTZ tablet (Alinia) with food), the “maximum serum concentration of TIZ” value is “approximately 10 μg/mL and ~37 μM”. Besides, the “elimination half-life from plasma” value in [4] (plasma) was “approximately 1.5 hours”. Further, the CC50 at 9 days in data set [8] was > 100000 nM.
Regarding `O=C(Nc1cccc(F)c1)c1ccccc1O` [Compound 3, N-(3-fluorophenyl)-2-hydroxybenzamide], the CC50 at 3 days in [1] (setting [15]) is > 100000 nM; in [12], 9900 nM; in [13] (setting [16]) it was 11000 nM. The EC50 stood at 600 nM in data set [3], 420 nM in data set [5] and 820 nM in data set [11]. For the same compound, the 90% effect concentration (EC90) in data set [3] turned out to be 2600 nM; in data set [5], 3300 nM; in data set [11] it was 2700 nM. Further, in the data set on Huh 7.5 cells, the “cytotoxic effect in Huh 7.5 cells” value is recorded as “None of these compounds showed a cytotoxic effect”. The “inhibition of J6/JFH-1 HCV replication” value in data set [10] is on record as “shown to inhibit J6/JFH-1HCV replication”. For the same compound, the “relative activity / potency versus NTZ” value in data set [10] turned out to be 65%.

(Values after patent US20120108592A1, “PHARMACEUTICAL COMPOSITIONS AND METHODS OF USE OF SALICYLANILIDES FOR TREATMENT OF HEPATITIS VIRUSES” (priority 2010, published 2012).)
